Converted amounts (≈) assume the structure as drawn.
What was measured:
[1] = system: several DNA and RNA viruses; conditions: against several DNA and RNA viruses; cited from earlier work
[2] = system: Mycobacterium tuberculosis strain H37Rv; test: microbe, parasite or virus in culture; type: cell-based; conditions: read-out: MIC VERSUS H37Rv
[3] = system: Poliovirus Type III vaccine strain (ATCC VR 300); test: microbe, parasite or virus in culture; type: cell-based
[4] = system: HEP 2 Cells (ATCC HB 8065); test: Antiviral assay of Respiratory Syncytial Virus: toxicity to uninfected cells; type: cell-based
Protocol: c. […] The cell count wells receive media only.
d. The cultures are incubated for 24 hr.
e. […] Scoring is as described above.

[5] = system: Buffalo Green Monkey Kidney Cells (ATCC CCL 81)
Streptococcus pyogenes = test: microbe, parasite or virus in culture; conditions: 48 h
[6] = system: Poliovirus Type III vaccine strain (ATCC VR 300); type: cell-based

SMILES | broad spectrum antiviral activity [1] | MIC [2] | VIRUS YIELD (PFU/mL) [3] | VIRUS YIELD FOLD-REDUCTION [3] | TOXICITY [5] | toxicity (in words) [5] | MIC (Streptococcus pyogenes) | also measured
Nc1ncnc2c1ncn2C[C@H](O)CO [(S)-9-(2',3'-dihydroxypropyl)adenine] | broad spectrum antiviral activity |  |  |  |  |  |  | 
Nc1ncnc2c1ncn2C[C@@H](CO)OCP(=O)(O)O [(S)-9-(3'-dihydroxy-2'-phosphonylmethoxypropyl)adenine] | broad spectrum antiviral activity |  |  |  |  |  |  | 
CCCCCCCCCCCCCCCCCCOCC(CO)n1ccnc1 (stereo not shown) [CPR 1005, 1-O-octadecyl-2-(1-imidazolyl)-2-deoxy-glycerol] |  | 6.25 µg/mL (≈ 15.8 µM) | 2.8 × 10^3 PFU/mL | 1.03×10^4 fold | N | not toxic at the concentrations tested | 10 µg/mL (≈ 25.3 µM) | TOXICITY ([4]; Table 4, HEP 2 cells, 24 hr, final concentration 100 (mM)): N; toxicity (in words) ([4]; at the dosages tested): not toxic at the dosages tested
CCCCCCCCCCCCCCCCOCC(CO)n1ccnc1 (stereo not shown) [CPR 1104, 1-O-hexadecyl-2-(1-imidazolyl)-2-deoxy-glycerol] |  | 1.6 µg/mL (≈ 4.36 µM) |  |  |  |  |  | 
CCCCCCCCCCCCCCCCCCOCC(CO)n1cncn1 (stereo not shown) [CPR 1004, 1-O-octadecyl-2-(1-triazolyl)-2-deoxy-glycerol] |  | 12.5 µg/mL (≈ 31.6 µM) | 7.0 × 10^5 PFU/mL | 41.7 fold | N | not toxic at the concentrations tested | 1 µg/mL (≈ 2.53 µM) | VIRAL CPE [6]: ±; activity at 100000 µM ([3]; Enterovirus C, read-out: VIRUS YIELD (YIELD)): 2.4%

Reference: patent publication US5972982A (priority 1997, dated 1999)
